Data: publication PMC9558423 (Molecular nutrition & food research, 2020)
Structures can show the parent of a compound that is named as a salt. Where two headings read alike, the source gives them in different places. Marks after values point to notes of the source that are not given here.

Columns and labels:
[1] = for Qualitative Tmax (blood collection with greatest plasma level): blood every 6h, np = no peak; for Cmax / AUC / Tmax: plasma; for Plasma AUC: plasma 0–48h, trapezoidal
[2] = for Cmax (nmol excreted) / Tmax: urine; for Cmax (nmol excreted): mean ± SD; for Qualitative Tmax (urine collection with greatest excretion): 12h urine collections, np = no peak; for Tmax: female, Sprague Dawley, rat, po
[3] = rat, in vivo, 350 mg/kg
[4] = Low dose (75 mg/kg bw), mean ± SD
[5] = female, Sprague Dawley, rat, po, 350 mg/kg
[6] = female, Sprague Dawley, rat, po, 1000 mg/kg
[7] = High dose (1000 mg/kg bw), mean ± SD
[8] = Medium dose (350 mg/kg bw), mean ± SD

| Qualitative Tmax (blood collection with greatest plasma level) ([1]; Low dose (75 mg/kg bw)) | Cmax [1, 4] | Cmax (nmol excreted) ([2]; High dose (1000 mg/kg bw)) | Cmax (nmol excreted) ([2]; Low dose (75 mg/kg bw)) | Cmax (nmol excreted) ([2]; Medium dose (350 mg/kg bw)) | Tmax ([2]; 350 mg/kg) | Tmax ([2]; 1000 mg/kg) | Molecule | Qualitative Tmax (urine collection with greatest excretion) ([2]; Low dose (75 mg/kg bw)) | Plasma AUC [1, 7] | Qualitative Tmax (urine collection with greatest excretion) ([2]; High dose (1000 mg/kg bw)) | Qualitative Tmax (urine collection with greatest excretion) ([2]; Medium dose (350 mg/kg bw)) | Qualitative Tmax (blood collection with greatest plasma level) ([1]; High dose (1000 mg/kg bw)) | Cmax [1, 7] | Plasma AUC [1, 4] | Qualitative Tmax (blood collection with greatest plasma level) ([1]; Medium dose (350 mg/kg bw)) | Plasma AUC [1, 8] | Cmax [1, 8] | also measured |
| --- | --- | --- | --- | --- | --- | --- | --- | --- | --- | --- | --- | --- | --- | --- | --- | --- | --- | --- |
| np | np | 1.83 ± 0.28 nmol excreted | np | 0.72 ± 0.14 nmol excreted | 0 to 12 h | 0 to 12 h | O=C(O)[C@H]1O[C@@H](Oc2c(-c3ccc(O)c(O)c3)oc3cc(O)cc(O)c3c2=O)[C@H](O)[C@@H](O)[C@@H]1O [Quercetin glucuronide, quercetin-3-O-glucuronide] | np |  |  |  |  |  |  |  |  |  | AUC ([1]; female, Sprague Dawley, rat, po, 75 mg/kg): 0.32 ± 0.01 µM·h; AUC [1, 5]: 0.34 ± 0.05 µM·h; Cmax [1, 5]: 8 ± 2 nM; Tmax [1, 5]: 6 h; AUC [1, 6]: 0.57 ± 0.14 µM·h; Cmax [1, 6]: 23 ± 5 nM; Tmax [1, 6]: 6 h |
|  |  | 35.1 ± 6.0 nmol excreted | 1.03 ± 0.30 nmol excreted | 12.2 ± 3.0 nmol excreted | 0 to 12 h | 0 to 12 h | COc1cc(C(=O)O)cc(OC)c1O [Syringic acid, syringic acid] |  | trace |  |  |  |  |  |  |  |  | Time of maximal urinary excretion after dosing ([2]; as stated in text/figure legend, doses not separated): ≤ 12 h; Tmax ([2]; 75 mg/kg): 0 to 12 h |
|  |  |  |  |  |  |  | COc1ccc(-c2oc3cc(O)cc(O)c3c(=O)c2O)cc1O [4-OMe-quercetin, 4-methoxyquercetin] |  |  |  |  |  |  |  |  |  |  | Qualitative Tmax (urine collection with greatest excretion) [3]: 0 to 12 h |
| np | np | 379 ± 134 nmol excreted | np | 261 ± 50 nmol excreted |  |  | Caffeic acid glucuronide | np | 0.92 ± 0.20 ^y uM*h | 0 to 12 h | 0 to 12 h | 6 h | 84 ± 20 nM | 0.36 ± 0.06 ^w uM*h | 6 h | 0.55 ± 0.11 ^x uM*h | 21 ± 8 nM |  |

| Molecule | Qualitative Tmax (blood collection with greatest plasma level) ([1]; Low dose (75 mg/kg bw)) | Cmax [1, 4] | Cmax (nmol excreted) ([2]; High dose (1000 mg/kg bw)) | Cmax (nmol excreted) ([2]; Low dose (75 mg/kg bw)) | Cmax (nmol excreted) ([2]; Medium dose (350 mg/kg bw)) | Tmax ([2]; 350 mg/kg) | Tmax ([2]; 1000 mg/kg) | Qualitative Tmax (urine collection with greatest excretion) ([2]; Low dose (75 mg/kg bw)) | Plasma AUC [1, 7] | Qualitative Tmax (urine collection with greatest excretion) ([2]; High dose (1000 mg/kg bw)) | Qualitative Tmax (urine collection with greatest excretion) ([2]; Medium dose (350 mg/kg bw)) | Qualitative Tmax (blood collection with greatest plasma level) ([1]; High dose (1000 mg/kg bw)) | Cmax [1, 7] | Plasma AUC [1, 4] | Qualitative Tmax (blood collection with greatest plasma level) ([1]; Medium dose (350 mg/kg bw)) | Plasma AUC [1, 8] | Cmax [1, 8] | also measured |
| --- | --- | --- | --- | --- | --- | --- | --- | --- | --- | --- | --- | --- | --- | --- | --- | --- | --- | --- |
| COc1cc(/C=C/C(=O)O)ccc1O [Ferulic acid, ferulic acid] |  |  |  | np | 11.7 ± 3.0 nmol excreted |  |  | np | trace | 0 to 24 h | 0 to 24 h |  |  |  |  |  |  |  |
| COc1cc(/C=C/C(=O)O)ccc1OS(=O)(=O)O [Ferulic acid sulfate] | np | np | 18.7 ± 14.9 nmol excreted | np | 7.41 ± 3.52 nmol excreted |  |  | np | 9.12 ± 2.89 ^x uM*h | 0 to 12 h | 0 to 12 h | 6 h | 825 ± 317 nM | 6.16 ± 1.50 ^x uM*h | 6 h | 6.33 ± 3.04 ^x uM*h | 262 ± 169 nM |  |
